Assay results reported in patent US20120010245A1, “TRANSDERMAL PHARMACEUTICAL COMPOSITIONS COMPRISING A SERM” (BESINS HEALTHCARE LUXEMBOURG SARL, priority 2008, published 2012).
Values after ≈ are worked out from the molar mass of the structure shown. Values joined by “and” are separate entries in the source; they are usually repeats but may differ in a detail not shown here. Identical values can stand only once. Counter-ions that a name gives are not always drawn. Like-named read-outs stand apart in the source and are kept apart here. One block for each compound: values may come before it.

Experiments:
[1] = Solubility studies (saturated solubility, HPLC); type: physicochemical; conditions: for solubility: aqueous with cosolvent or surfactant or cyclodextrin, thermodynamic from solid
Description: (§1) The saturated solubilities of endoxifen were determined in a mixture of absolute ethanol/water (70:30, w/w) by shaking an excess amount of drug in 1 ml of the co-solvent system for at least 24 hours at room temperature. The concentrations of the saturated solutions were determined by HPLC analysis after appropriate dilution.
as §1, with “clomifene citrate” for “endoxifen”, “series” for “mixture”, “of” for “of absolute”, “mixtures (40:60, 50:50, 60:40 and 70:30,” for “(70:30,”, “0.6” for “1”, “temperature. […]” for “temperature.”
The concentrations of the saturated solutions were determined by HPLC analysis after appropriate dilution.
as §1, with “toremifene” for “endoxifen”, “series” for “mixture”, “of” for “of absolute”, “mixtures (40:60, 50:50, 60:40 and 70:30,” for “(70:30,”, “temperature. […]” for “temperature.”

[2] = Skin permeation study in side-by-side diffusion cells; type: in vitro ADME, pig
Description: Skin permeation studies were carried out using opaque side-by-side diffusion cells with an effective diffusion area of 0.71 cm^2. […] The receptor solution was a 3% w/v cetrimide solution and allowed sink conditions to be maintained. The receptor phase was magnetically stirred at 100 rpm. Dermatomed abdominal pig skin (750 μm) was used. Skin was allowed to hydrate with isotonic saline solution for 1 h before the experiment was started. […] Experiments were performed under complete occlusion. Post-application, at scheduled times (1, 9, 20 and 24 hours), 1 ml samples were taken from the receiver compartment and replaced with the same volume of fresh, temperature-equilibrated receptor fluid. Samples were filtered through 0.45 μm PVDF membrane filters. The amount of endoxifen in the samples was determined by HPLC using the method described above.

[3] = Stability in analysis medium (cetrimide solution, 3%); type: physicochemical; conditions: 3% cetrimide solution
[4] = Solubility studies (saturated solubility, HPLC); type: physicochemical; conditions: 3% w/v cetrimide solution, aqueous with cosolvent or surfactant or cyclodextrin, thermodynamic from solid, room temperature
[5] = 1 h, saturated solution of the drug in 70:30 w/w ethanol-water, — not defined here (Table 2: below LOD)
[6] = ethanol/water 70:30 w/w co-solvent system, room temperature, read-out: Solubility in ethanol:water (70:30 w/w)
[7] = 1 hr, saturated solution in 70:30 w/w ethanol-water, donor 30.46 mg/mL

solubility ([1]; 3% w/v cetrimide solution, room temperature, read-out: Solubility in 3% cetrimide solution): 302 ± 14 µg/mL (≈ 744 µM)
Saturated solubility, Expt 1-3 ([1]; EtOH:Water 40:60 w/w, single experiments): 75.4 µg/mL and 74 µg/mL
Saturated solubility, Expt 1-3 ([1]; EtOH:Water 50:50 w/w, single experiments): 333 µg/mL and 324 µg/mL
Saturated solubility, Expt 1-3 ([1]; EtOH:Water 60:40 w/w, single experiments): 1063 µg/mL and 1009 µg/mL
Saturated solubility, Expt 1-3 ([1]; EtOH:Water 70:30 w/w, single experiments): 2698 µg/mL and 2623 µg/mL
solubility ([1]; ethanol/water 40:60 w/w co-solvent system, EtOH:Water 40:60 w/w, n=3, read-out: Saturated solubility, Average concentration ± SD): 74.7 ± 1.1 µg/mL (≈ 184 µM)
solubility ([1]; ethanol/water 40:60 w/w co-solvent system, EtOH:Water 40:60 w/w, single experiments, read-out: Saturated solubility, Expt 1-3): 74.8 µg/mL (≈ 184 µM)
solubility ([1]; ethanol/water 50:50 w/w co-solvent system, EtOH:Water 50:50 w/w, n=3, read-out: Saturated solubility, Average concentration ± SD): 335 ± 15 µg/mL (≈ 825 µM)
solubility ([1]; ethanol/water 50:50 w/w co-solvent system, EtOH:Water 50:50 w/w, single experiments, read-out: Saturated solubility, Expt 1-3): 350 µg/mL (≈ 862 µM)
solubility ([1]; ethanol/water 60:40 w/w co-solvent system, EtOH:Water 60:40 w/w, n=3, read-out: Saturated solubility, Average concentration ± SD): 1050 ± 37 µg/mL (≈ 2600 µM)
solubility ([1]; ethanol/water 60:40 w/w co-solvent system, EtOH:Water 60:40 w/w, single experiments, read-out: Saturated solubility, Expt 1-3): 1090 µg/mL (≈ 2680 µM)
solubility ([1]; ethanol/water 70:30 w/w co-solvent system, EtOH:Water 70:30 w/w, n=3, read-out: Saturated solubility, Average concentration ± SD): 2730 ± 124 µg/mL (≈ 6720 µM)
solubility ([1]; ethanol/water 70:30 w/w co-solvent system, EtOH:Water 70:30 w/w, single experiments, read-out: Saturated solubility, Expt 1-3): 2860 µg/mL (≈ 7050 µM)
cumulative permeation, Mean (±SD) [2, 5]: 3.38 μg/cm^2
cumulative permeation, single cells [2, 5]: 3.38 μg/cm^2
cumulative permeation, Mean (±SD) ([2]; 9 h, saturated solution of the drug in 70:30 w/w ethanol-water, — not defined here (Table 2: below LOD)): 1.53 ± 2.6 μg/cm^2
cumulative permeation, Mean (±SD) ([2]; 20 h, saturated solution of the drug in 70:30 w/w ethanol-water): 3.89 ± 3.2 μg/cm^2
Stability in analysis medium ([3]; 24 hours): stable
SMILES: CN(C)CCOc1ccc(/C(=C(/CCCl)c2ccccc2)c2ccccc2)cc1 [toremifene]

solubility [4]: 6260 ± 280 µg/mL (≈ 16800 µM)
solubility [1, 6]: 38700 µg/mL (≈ 104000 µM)
experimental permeation after 24 hours relative to in silico prediction ([2]; 37.29 μg/cm^2 versus about 0.98 μg/cm^2 in 24 hours): 40 times higher
cumulative permeation, Mean (±SD) ([2]; 9 hr, saturated solution in 70:30 w/w ethanol-water, donor 30.46 mg/mL): 0.31 ± 0.36 μg/cm^2
cumulative permeation, Mean (±SD) ([2]; 20 hr, saturated solution in 70:30 w/w ethanol-water, donor 30.46 mg/mL): 17.24 ± 15.13 μg/cm^2
Stability in analysis medium ([3]; 24 hours): stable
SMILES: CC/C(=C(\c1ccc(O)cc1)c1ccc(OCCNC)cc1)c1ccccc1 [endoxifen, 4-hydroxy-N-desmethyl-tamoxifen]
cumulative permeation, Mean (±SD) [2, 7]: — ((—) below the limit of detection (LOD) of 30 ng/ml.)
cumulative permeation, single cells [2, 7]: — ((—) below the limit of detection (LOD) of 30 ng/ml.)

solubility ([4]; n=2): 8900 ± 200 µg/mL
solubility [1, 6]: 47400 ± 1700 µg/mL
cumulative permeation, Mean (±SD) ([2]; 20 h, saturated solution in 70:30 w/w ethanol-water, donor 45.93±[…]): 0.62 ± 0.37 μg/cm^2
Stability in analysis medium ([3]; 24 hours): stable
SMILES: CC/C(=C(/c1ccc(OCCN(C)C)cc1)c1cccc(O)c1)c1ccccc1 [droloxifene citrate, 3-[(1E)-1-[4-[2-(Dimethylamino)ethoxy]phenyl]-2-phenyl-1-butenyl]phenol]

cumulative permeation, single cells ([2]; 9 hr, saturated solution in 70:30 v/v ethanol-water, — not defined here (Table 2: below LOD)): 4.1 μg/cm^2 and 3.3 μg/cm^2
cumulative permeation, Average (±SD) ([2]; 20 hr, saturated solution in 70:30 v/v ethanol-water): 8.3 ± 4.7 μg/cm^2
cumulative permeation, Average (±SD) ([2]; 24 hr, saturated solution in 70:30 v/v ethanol-water): 12.5 ± 6.3 μg/cm^2
cumulative permeation, Average (±SD) ([2]; 24 hr, saturated solution in 70:30 v/v ethanol-water, listed as 4-OH tamoxifen): 12.5 μg/cm^2
Stability in analysis medium ([3]; 30 hours): stable
SMILES: CCC(=C(c1ccc(O)cc1)c1ccc(OCCN(C)C)cc1)c1ccccc1 [4-OH Tamoxifen, 1-[4-(2-N-dimethylaminoethoxy)phenyl]-1-(4-hydroxyphenyl)-2-phenylbut-1-ene]
